Values quoted from earlier work in US20050186280A1, “Method for stabilizing a composition having a biologically active epidermal growth factor as an active ingredient” (Daewoong Pharm. Co., Ltd., priority 2000, published 2005).

Conditions: background statement; applied to wounds

epidermal growth factor [EGF]
half-life of EGF: about 1 hour
